The record followed here is patent publication US20260306642A1, “STAT DEGRADERS AND USES THEREOF” (Recludix Pharma, Inc., priority 2023, published 2026).

One test has as its target T1, pSTAT6 (Homo sapiens, UniProt P42226).
T1 sequence (P42226 1-847): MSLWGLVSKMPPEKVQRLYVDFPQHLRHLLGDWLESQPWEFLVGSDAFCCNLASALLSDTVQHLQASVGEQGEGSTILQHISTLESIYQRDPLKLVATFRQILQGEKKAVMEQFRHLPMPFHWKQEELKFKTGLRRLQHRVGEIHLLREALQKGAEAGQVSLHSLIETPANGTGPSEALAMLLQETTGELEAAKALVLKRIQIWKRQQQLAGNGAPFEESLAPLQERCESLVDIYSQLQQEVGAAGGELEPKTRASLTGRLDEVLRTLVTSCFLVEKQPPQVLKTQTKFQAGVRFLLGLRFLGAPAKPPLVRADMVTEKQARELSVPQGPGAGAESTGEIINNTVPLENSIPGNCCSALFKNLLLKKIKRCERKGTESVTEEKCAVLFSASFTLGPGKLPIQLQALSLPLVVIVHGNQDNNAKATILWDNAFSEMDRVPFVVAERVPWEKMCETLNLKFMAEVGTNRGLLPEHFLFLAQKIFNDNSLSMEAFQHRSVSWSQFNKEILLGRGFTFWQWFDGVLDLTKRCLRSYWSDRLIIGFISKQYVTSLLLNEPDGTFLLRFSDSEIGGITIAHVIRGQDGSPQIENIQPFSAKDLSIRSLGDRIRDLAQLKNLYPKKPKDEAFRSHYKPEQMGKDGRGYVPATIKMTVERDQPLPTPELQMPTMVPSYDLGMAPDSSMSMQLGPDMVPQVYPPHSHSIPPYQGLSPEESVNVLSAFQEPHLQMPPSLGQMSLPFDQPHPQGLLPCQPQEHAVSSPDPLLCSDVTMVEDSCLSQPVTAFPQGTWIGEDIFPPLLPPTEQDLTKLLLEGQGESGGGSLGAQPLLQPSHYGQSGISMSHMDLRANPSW
Description: MSD-pSTAT-PBMC Assay (pSTAT6, IL-4 stimulated). The format is cell-based. Conditions: compound 3 hrs, then 1 ng/mL IL-4 10 min, pY641-STAT6, read-out: pSTAT6 IC50. The text has this: Cryopreserved Peripheral Blood Mononuclear Cells (PBMC) are from AllCells. Recombinant Human IL-4 and IL-6 are from Peprotech. Mouse monoclonal anti-STAT3 antibody, rabbit monoclonal anti-pY705-STAT3 antibody, rabbit monoclonal Anti-pY641-STAT6 antibody, and lysis buffer are from Cell Signaling Technology (CST). Mouse monoclonal anti-STAT6 antibody is from BioLegend. Assay plates, blocker, and anti-rabbit secondary antibody are from Meso Scale Discovery (MSD).
Cryopreserved PBMCs were thawed out and allowed to recover overnight in IMDM+10% heat-inactivated FBS prior to plating 50,000 (STAT3) or 25,000 (STAT6) cells per well in 96-well U-bottom tissue culture plates. Cells were treated with compound for 3 hrs, then stimulated with 10 ng/mL IL-6 (STAT3) or 1 ng/mL IL-4 (STAT6) for 10 min. Cells were then spun down and washed with ice-cold PBS prior to lysing the cell pellet with 1× lysis buffer (CST) with 1× HALT protease and phosphatase inhibitor cocktail (Thermo). Lysates were transferred to and incubated overnight at 4° C. with shaking in QuickPlex 96-well high bind assay plates (MSD) pre-coated overnight with 30 μL per well of […] mouse monoclonal anti-STAT3 antibody (STAT3) or 2 μg/mL mouse monoclonal anti-STAT6 antibody (STAT6) in 1× PBS, and pre-blocked for 1 hour with 3% Blocker-A (MSD). Captured protein in the assay plates were then washed and probed with 25 μL per well of […] rabbit monoclonal anti-pY705-STAT3 antibody (STAT3) or […] rabbit monoclonal Anti-pY641-STAT6 antibody (STAT6) in 1% Blocker-A for 1 hour at room temperature with shaking, then washed and probed with 25 ul per well of 1 ug/ml Sulfo-TAG Labeled Goat Anti-Rabbit Antibody (MSD) in 1% Blocker-A for 1 hour at room temperature with shaking. Assay plates were then washed and 150 μL of 1× Read Buffer-T (MSD) was added to each well prior to reading on an SQ120 MSD Plate Reader. Assay signal from each sample was subtracted by the signal from unstimulated control wells and normalized to DMSO control wells. IC50 values were calculated using Graph Pad Prism Dose-Response Nonlinear Regression with variable slope. For both pSTAT3 and pSTAT6 A=≤100 nM; B=>100-1000 nM; C=>1000-3000 nM; and D=>3 μM.

The next test deals with T2, STAT6 (Homo sapiens, UniProt P42226).
T2 construct: Recombinant STAT6 protein (STAT6(W123-T658))
T2 sequence (P42226 123-658): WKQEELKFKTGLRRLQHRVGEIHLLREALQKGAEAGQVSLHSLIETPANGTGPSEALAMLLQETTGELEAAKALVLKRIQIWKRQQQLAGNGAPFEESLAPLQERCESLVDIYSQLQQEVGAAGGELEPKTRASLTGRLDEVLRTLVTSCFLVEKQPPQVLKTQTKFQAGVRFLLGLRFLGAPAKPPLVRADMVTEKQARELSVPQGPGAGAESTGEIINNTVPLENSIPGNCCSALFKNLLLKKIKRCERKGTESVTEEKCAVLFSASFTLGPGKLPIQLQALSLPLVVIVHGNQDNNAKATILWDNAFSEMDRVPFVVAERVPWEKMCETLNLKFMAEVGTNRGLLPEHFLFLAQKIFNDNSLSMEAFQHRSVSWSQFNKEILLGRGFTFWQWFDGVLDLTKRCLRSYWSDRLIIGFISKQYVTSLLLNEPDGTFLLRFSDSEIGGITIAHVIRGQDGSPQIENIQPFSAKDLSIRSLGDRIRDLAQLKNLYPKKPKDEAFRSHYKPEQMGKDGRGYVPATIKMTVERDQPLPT
Briefly: STAT6 Fluorescence Polarization (FP) Assay. It counts as binding. Here is the method: An FP assay was developed to determine IC50 values for test substances. Recombinant STAT6 protein (STAT6(W123-T658)) at 250 nM was combined with a fluorescently labeled, phosphotyrosine peptide probe (5-FAM-ApYKPFQDLI-NH2) at 2 nM in FP buffer (10 mM HEPES pH 7.4, 50 mM NaCl, 1 mM EDTA, 0.05% Tween 20, 2 mM DTT). 50 μL of STAT6-probe mixture was added to serial diluted compounds in black, 96-well plates (Greiner BioOne 655076) to a final concentration of 1% DMSO. Reaction components were mixed, and FP was measured after 45-minute incubation at room temperature using a Tecan Spark multimode plate reader. FP signal (mP) was plotted against the log concentration of the test substances and IC50 values were calculated by nonlinear regression analysis using GraphPad Prism software. For STAT6 FP assay, A=≤300 nM; B=>300-3000 nM; C=>3-30 μM; and D=>30 μM.
A general note: Polarisation of emitted light reports the rotation of a fluorescent probe.

The target of a further test is T3, STAT3 (Homo sapiens, UniProt P40763).
T3 construct: Recombinant STAT3 protein (STAT3(G127-I722))
T3 sequence (P40763 127-722): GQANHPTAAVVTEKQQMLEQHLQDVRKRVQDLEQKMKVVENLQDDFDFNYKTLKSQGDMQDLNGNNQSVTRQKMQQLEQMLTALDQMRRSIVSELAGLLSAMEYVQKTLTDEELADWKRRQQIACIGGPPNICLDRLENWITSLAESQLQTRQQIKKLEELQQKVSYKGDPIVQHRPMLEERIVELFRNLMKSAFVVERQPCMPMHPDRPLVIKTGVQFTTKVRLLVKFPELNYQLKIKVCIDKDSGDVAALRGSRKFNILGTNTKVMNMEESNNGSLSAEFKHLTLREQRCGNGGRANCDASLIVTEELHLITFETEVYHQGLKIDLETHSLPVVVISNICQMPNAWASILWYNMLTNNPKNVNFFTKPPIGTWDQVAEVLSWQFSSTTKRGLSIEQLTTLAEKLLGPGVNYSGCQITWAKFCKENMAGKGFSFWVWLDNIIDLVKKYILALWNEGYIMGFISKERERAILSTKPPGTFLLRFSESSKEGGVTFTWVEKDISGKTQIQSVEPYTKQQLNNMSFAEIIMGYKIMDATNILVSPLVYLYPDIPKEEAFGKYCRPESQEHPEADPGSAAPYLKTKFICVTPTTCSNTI
Briefly: STAT3 Fluorescence Polarization (FP) Assay. The format is binding. The procedure:
An FP assay was developed to determine IC50 values for test substances.
Recombinant STAT3 protein (STAT3(G127-I722)) at 25 nM was combined with a fluorescently labeled, phosphotyrosine peptide probe (5-FAM-GpYLPQTV-NH2) at 2 nM in FP buffer (10 mM HEPES pH 7.4, 50 mM NaCl, 1 mM EDTA, 0.05% Tween 20, 2 mM DTT). 50 μL of STAT3-probe mixture was added to serial diluted compounds in black, 96-well plates (Greiner BioOne 655076) to a final concentration of 1% DMSO. Reaction components were mixed, and FP was measured after 45-minute incubation at room temperature using a Tecan Spark multimode plate reader. FP signal (mP) was plotted against the log concentration of the test substances and IC50 values were calculated by nonlinear regression analysis using GraphPad Prism software. For STAT3 FP assay, A=≤100 nM; B=>100-1000 nM; C=>1-10 μM; and D=>10 μM.

Broadly, the IC50 is the point on the concentration scale where inhibition reaches its midpoint. `O=C1CCC(c2ccc(OCCCCCn3ccc([C@@H]4CN(C(=O)[C@@H]5CC[C@@H]6CCCC[C@H](NC(=O)c7cc8cc(C(F)(F)P(=O)(O)O)ccc8s7)C(=O)N65)C5(CC5)C4)cc3=O)cc2)C(=O)N1` (stereo partly drawn) [Compound 17, ((2-(((3S,6S,10aS)-3-((6R)-6-(1-(5-(4-(2,6-dioxopiperidin-3-yl)phenoxy)pentyl)-2-oxo-1,2-dihydropyridin-4-yl)-4-azaspiro[2.4]heptane-4-carbonyl)-5-oxodecahydropyrrolo[1,2-a]azocin-6-yl)carbamoyl)benzo[b]thiophen-5-yl)difluoromethyl)phosphonic acid]: the results for the IC50 at pSTAT6, on STAT6 and against STAT3 were 1 to 3 µM, less than 300 nM and 1000 to 10000 nM, respectively.
For `O=C1CCC(n2c(=O)[nH]c3cc(N4CCC(n5ccc([C@@H]6CN(C(=O)[C@@H]7CC[C@@H]8CCCC[C@H](NC(=O)c9cc%10cc(C(F)(F)P(=O)(O)O)ccc%10s9)C(=O)N87)C7(CC7)C6)cc5=O)CC4)ccc32)C(=O)N1` (stereo partly drawn) [Compound 24, ((2-(((3S,6S,10aS)-3-((6R)-6-(1-(1-(1-(2,6-dioxopiperidin-3-yl)-2-oxo-2,3-dihydro-1H-benzo[d]imidazol-5-yl)piperidin-4-yl)-2-oxo-1,2-dihydropyridin-4-yl)-4-azaspiro[2.4]heptane-4-carbonyl)-5-oxodecahydropyrrolo[1,2-a]azocin-6-yl)carbamoyl)benzo[b]thiophen-5-yl)difluoromethyl)phosphonic acid] the same measures were more than 3 µM, 300 to 3000 nM and 1000 to 10000 nM.
As to `N#CC1CN(C(=O)C2CCC3CCCCC(NC(=O)c4cc5cc(C(F)(F)P(=O)(O)O)ccc5s4)C(=O)N32)CC1c1cccc(N2CCN(c3ccc4c(c3)[nH]c(=O)n4C3CCC(=O)NC3=O)CC2)c1` [Compound 22, ((2-(((3S,6S,10aS)-3-((rel-3S,4R)-3-cyano-4-(3-(4-(1-(2,6-dioxopiperidin-3-yl)-2-oxo-2,3-dihydro-1H-benzo[d]imidazol-5-yl)piperazin-1-yl)phenyl)pyrrolidine-1-carbonyl)-5-oxodecahydropyrrolo[1,2-a]azocin-6-yl)carbamoyl)benzo[b]thiophen-5-yl)difluoromethyl)phosphonic acid], the IC50 is 1 to 3 µM on pSTAT6, less than 300 nM against STAT6 and 100 to 1000 nM against STAT3.
As to `N#CC1CN(C(=O)C2CCC3CCCCC(NC(=O)c4cc5cc(C(F)(F)P(=O)(O)O)ccc5s4)C(=O)N32)CC1c1cccc(OCCOCCOc2cccc3c2CN(C2CCC(=O)NC2=O)C3=O)c1` [Compound 16, ((2-(((3S,6S,10aS)-3-((rel-3S,4R)-3-cyano-4-(3-(2-(2-((2-(2,6-dioxopiperidin-3-yl)-1-oxoisoindolin-4-yl)oxy)ethoxy)ethoxy)phenyl)pyrrolidine-1-carbonyl)-5-oxodecahydropyrrolo[1,2-a]azocin-6-yl)carbamoyl)benzo[b]thiophen-5-yl)difluoromethyl)phosphonic acid], the IC50 was in the range of 1 to 3 µM at pSTAT6, 300 to 3000 nM on STAT6 and 100 to 1000 nM on STAT3.
As for `O=C1CCC(N2Cc3c(OCCOCCOCCn4ccc([C@@H]5CN(C(=O)[C@@H]6CC[C@@H]7CCCC[C@H](NC(=O)c8cc9cc(C(F)(F)P(=O)(O)O)ccc9s8)C(=O)N76)C6(CC6)C5)cc4=O)cccc3C2=O)C(=O)N1` (stereo partly drawn) [Compound 27, ((2-(((3S,6S,10aS)-3-((6R)-6-(1-(2-(2-(2-((2-(2,6-dioxopiperidin-3-yl)-1-oxoisoindolin-4-yl)oxy)ethoxy)ethoxy)ethyl)-2-oxo-1,2-dihydropyridin-4-yl)-4-azaspiro[2.4]heptane-4-carbonyl)-5-oxodecahydropyrrolo[1,2-a]azocin-6-yl)carbamoyl)benzo[b]thiophen-5-yl)difluoromethyl)phosphonic acid], the IC50 on pSTAT6 is more than 3 µM; against STAT6 it was 300 to 3000 nM; on STAT3, 1000 to 10000 nM.
The matching figures for `O=C1CCC(c2ccc(OCCCCCOc3cc([C@@H]4CN(C(=O)[C@@H]5CC[C@@H]6CCCC[C@H](NC(=O)c7cc8cc(C(F)(F)P(=O)(O)O)ccc8s7)C(=O)N65)C5(CC5)C4)ccn3)cc2)C(=O)N1` (stereo partly drawn) [Compound 19, ((2-(((3S,6S,10aS)-3-((6R)-6-(2-((5-(4-(2,6-dioxopiperidin-3-yl)phenoxy)pentyl)oxy)pyridin-4-yl)-4-azaspiro[2.4]heptane-4-carbonyl)-5-oxodecahydropyrrolo[1,2-a]azocin-6-yl)carbamoyl)benzo[b]thiophen-5-yl)difluoromethyl)phosphonic acid]: more than 3 µM, 300 to 3000 nM and 1000 to 10000 nM.
